Source: article PMC5365251, “Biophysical assay for tethered signaling reactions reveals tether-controlled activity for the phosphatase SHP-1” (Science Advances, 2017)

What was measured:
PEG28-ITIM = assay: Anti-phosphotyrosine antibody injected after SHP-1 on SPR chip: surviving phosphotyrosines; type: biochemical, mouse
Description: To create a substrate surface for SHP-1 in SPR, we coated a surface with peptides containing an ITIM sequence, from the […] of the inhibitory receptor LAIR-1, with a 28-repeat polyethylene glycol (PEG) spacer (PEG28-ITIM; Table 1). When SHP-1 was injected over this surface, we observed a complicated curve with an initial binding phase that was quickly followed by a reduction in binding despite continuous injection of SHP-1 (Fig. 2A). To convert the arbitrary response units reported by the SPR instrument to a more meaningful unit, we normalized this curve to maximum binding, assuming a one-to-one interaction with peptide (see Materials and Methods).
Fig. 2 An SPR assay recovers five independent biophysical/biochemical constants characterizing tethered enzymatic reactions by SHP-1. (A) Representative SPR trace (black dots) for SHP-1 injected over a surface immobilized with 48.5 RU of an ITIM peptide derived from LAIR-1 on a 28-repeat PEG linker (PEG28-ITIM). A fit of the MPDPDE model (red line) provides estimates for the indicated parameters. Early time data and fit are shown on the right. S1. […] (C) Schematic of reactions taking place when SHP-1 is injected over a surface of immobilized phosphorylated peptides. […]

[1] = test system: phosphorylated ITIM peptide on PEG28; assay: Calculation of local concentration, dephosphorylation time and rate enhancement from fitted parameters; design: species or system mouse
Description: The tethered enzymatic SPR assay also produced an estimate for the reach parameter (L), which was 23 nm. This number corresponds to a phosphorylated substrate experiencing a maximum local SHP-1 concentration of 45 μM when tethered, compared to, for example, a concentration of 1 μM in solution (Fig. 2A) or in the cytoplasm of immune cells (see Discussion).
Activatory and inhibitory immune receptors are both known to cluster in the plasma membrane ([11]–[15]), but the extent and consequences of clustering remain poorly understood. In the absence of clustering, a phosphorylation site on the cytoplasmic tails of these receptors will experience the low ~1-μM concentration of cytoplasmic SHP-1 [based on 280,000 copies of SHP-1 in cytotoxic T cells ([30]) with a radius of 5 μm]. Tethering of SHP-1 to nonclustered immune receptors at distances >50 nm results in even lower concentrations (for example, 0.04 μM when receptors are 50-nm apart), but when clustered within 5 nm, we can now estimate that this phosphorylated site will experience an SHP-1 concentration of 45 μM (Fig. 8A). […] These concentrations are calculated using the formula for σ with L = 23 nm for r = 5 and 50 nm (see Materials and Methods). We note that this is based on a reach of L = 23 nm, which represents SHP-1 bound to an ITIM on PEG28 dephosphorylating another ITIM on PEG28.
The combined effects induced by SHP-1 tethering on allosteric activation (20-fold) and local substrate concentration (45-fold) can be summarized by calculating the dephosphorylation rate ([SHP-1] × kcat* ).
A key component of the models (described below) is the calculation of the local substrate concentration that a tethered enzyme experiences. We assume that the motion of an unbound phosphorylated peptide (state A) and the motion of SHP-1 bound to a phosphorylated peptide (state B) can both be approximated by the worm-like chain model, which is a widely used polymer model. […]

Substance: SHP-1: murine SHP-1 tyrosine phosphatase with an N-terminal 6× His tag, expressed in E. coli
- dephosphorylation of immobilised peptide (in words) (PEG28-ITIM; anti-phosphotyrosine antibody (clone 4G10) injected after SHP-1 on SPR chip, PEG28-ITIM): near complete dephosphorylation
- anti-phosphotyrosine antibody binding after SHP-1 injection (in words) (PEG28-ITIM; experimental flow cell compared to buffer-injected control with equivalent peptide levels, Fig. 2B): reduced binding
- increase in overall dephosphorylation rate when tethered and clustered ([1]; [SHP-1] × kcat*, 45 μM × 0.0118 versus 1 μM × 0.000603 μM^-1 s^-1): 900 fold
- increase in SHP-1 (local substrate) concentration on tethering to clustered receptors ([1]; solution 1 μM versus tethered and clustered 45 μM): 45 fold
- reduction of reaction time by tethering ([1]; time to 50% dephosphorylation with versus without tethering): 125 fold
